# Results as given in US20250129064A1, “PRODRUGS OF 2-BROMO-LSD (2-BRO[…] DIETHYLAMIDE)” (Terran Biosciences Inc., priority 2022, published 2025).
# Where “and” joins values, the source holds several entries; their conditions need not be identical. Equal entries are not always repeated.
# Experiment: Serial tail vein bleed PK study of 2-Br-LSD and 2-Br-LSD prodrugs in SD rats; 2-Br-LSD measured in plasma
# Settings: analyte 2-Br-LSD in plasma; for AUC(0-t): AUC0-last; for half-life: T½
# [1] = 2-Br-LSD 1 mg/kg IV, male SD rat, individual animal
# [2] = 2-Br-LSD 4 mg/kg oral, male SD rat, individual animal
# [3] = male, Sprague-Dawley, rat, plasma, iv, 1 mg/kg, 2-Br-LSD 1 mg/kg IV, male SD rat, individual animal
# [4] = male, Sprague-Dawley, rat, plasma, iv, 1 mg/kg, 2-Br-LSD 1 mg/kg IV, male SD rats, mean of 3
# [5] = male, Sprague-Dawley, rat, plasma, po, 4 mg/kg, 2-Br-LSD 4 mg/kg oral, male SD rat, individual animal
# [6] = male, Sprague-Dawley, rat, plasma, po, 4 mg/kg, 2-Br-LSD 4 mg/kg oral, male SD rats, mean of 3
compound,measurement,setting,value
"CCN(CC)C(=O)[C@@H]1C=C2c3cccc4[nH]c(Br)c(c34)C[C@H]2N(C)C1 [Example 2-Br-LSD, (6aR,9R)-5-bromo-N,N-diethyl-7-methyl-6,6a,8,9-tetrahydro-4H-indolo[4,3-fg]quinoline-9-carboxamide]",AUC0-inf,[1],269 ng·h/mL and 308 ng·h/mL
same,AUC0-last,[1],268 ng·h/mL and 304 ng·h/mL
same,Cmax,[1],658 ng/mL and 500 ng/mL
same,Tlast,[1],4.00 h
same,T½,[1],37.7 min and 44.8 min
same,Tlast,"2-Br-LSD 1 mg/kg IV, male SD rats, mean of 3",4.00 h
same,AUC0-inf,[2],1960 ng·h/mL and 1450 ng·h/mL
same,AUC0-last,[2],1430 ng·h/mL and 997 ng·h/mL
same,Cmax,[2],366.0 ng/mL and 209.0 ng/mL
same,Tlast,[2],7 h
same,T½,[2],240 min
same,Tlast,"2-Br-LSD 4 mg/kg oral, male SD rats, mean of 3",7 h
same,AUC0-inf,"male, Sprague-Dawley, rat, plasma, iv, 1 mg/kg, AUC0-inf, 2-Br-LSD 1 mg/kg IV, male SD rat, individual animal",280 ng·h/mL
same,AUC0-inf,"male, Sprague-Dawley, rat, plasma, iv, 1 mg/kg, AUC0-inf, 2-Br-LSD 1 mg/kg IV, male SD rats, mean of 3",286 ng·h/mL
same,AUC(0-t),[3],278 ng·h/mL
same,AUC(0-t),[4],283 ng·h/mL
same,Cmax,"male, Sprague-Dawley, rat, plasma, iv, 1 mg/kg, Cmax, 2-Br-LSD 1 mg/kg IV, male SD rat, individual animal",577 ng/mL
same,Cmax,"male, Sprague-Dawley, rat, plasma, iv, 1 mg/kg, Cmax, 2-Br-LSD 1 mg/kg IV, male SD rats, mean of 3",578 ng/mL
same,half-life,[3],44.3 min
same,half-life,[4],42.2 min
same,AUC0-inf,"male, Sprague-Dawley, rat, plasma, po, 4 mg/kg, AUC0-inf, 2-Br-LSD 4 mg/kg oral, male SD rat, individual animal",1780 ng·h/mL
same,AUC0-inf,"male, Sprague-Dawley, rat, plasma, po, 4 mg/kg, AUC0-inf, 2-Br-LSD 4 mg/kg oral, male SD rats, mean of 3",1730 ng·h/mL
same,AUC(0-t),[5],1350 ng·h/mL
same,AUC(0-t),[6],1260 ng·h/mL
same,Cmax,"male, Sprague-Dawley, rat, plasma, po, 4 mg/kg, Cmax, 2-Br-LSD 4 mg/kg oral, male SD rat, individual animal",338 ng/mL
same,Cmax,"male, Sprague-Dawley, rat, plasma, po, 4 mg/kg, Cmax, 2-Br-LSD 4 mg/kg oral, male SD rats, mean of 3",304 ng/mL
same,half-life,[5],216 min
same,half-life,[6],222 min
